Columns and labels:
α-Chymotrypsin = target: T1, α-Chymotrypsin (Homo sapiens, UniProt P17538); test: Inhibition of Chymotrypsin by absorbance method (S-2586 substrate, 405 nm); format: biochemical; settings: Inhibitory Effect of Compounds on Chymotrypsin; 37 °C for 30 minutes
T1 construct: α-Chymotrypsin (Sigma, Cat. No. C8946); purchased Sigma C8946
Protocol: • Enzyme: α-Chymotrypsin (Sigma, Cat. No. C8946) • Substrate: S-2586™ (Boatman Biotech, Cat. No. B2586) • Buffer: 0.05 M HEPES; 0.145 M NaCl; 5 mM KCl and 0.1% PEG 8000, pH 7.4
Test compounds dissolved in 100% DMSO at 10 mM were diluted with 100% DMSO to concentrations of 100 µM, 33.33 µM, 11.11 µM, 3.704 µM, 1.235 µM, 0.412 µM, 0.137 µM, and 0.046 µM. Then 29.4 µL of Chymotrypsin enzyme solution (20 nM) was added to each well of a 384-well plate, with 29.4 µL of buffer added to blank wells instead. Then, 0.6 µL of compound at different concentrations was added; DMSO was used instead for blank and control wells. The plate was mixed using a plate shaker and incubated at 37 °C for 30 minutes.
Finally, 30 µL of substrate at a concentration of 200 µM was added to each well, and the absorbance was measured at 405 nm.
Table 4. Inhibitory Effect of Compounds on Chymotrypsin

Human Trypsin = target: T2, Human Trypsin (Homo sapiens, UniProt P07477); test: Inhibition of Trypsin by absorbance method (S-2222 substrate, 405 nm); format: biochemical; settings: Inhibitory Effect of Compounds on Trypsin; 37 °C for 30 minutes
T2 construct: purchased Sigma T6424
Protocol: • Enzyme: Human Trypsin (Sigma, Cat. No. T6424) • Substrate: S-2222™ (CHROMOGENIX, Cat. No. 82031639) • Buffer: 0.1 M sodium phosphate; 0.2 M NaCl and 0.5% PEG 8000, pH 7.4
Test compounds dissolved in 100% DMSO at 10 mM were diluted with 100% DMSO to concentrations of 10000 µM, 3333 µM, 1111 µM, 370.4 µM, 123.5 µM, 41.2 µM, 13.7 µM, and 4.6 µM. Then, 29.4 µL of Trypsin enzyme solution (0.8 nM) was added to each well of a 384-well plate, with 29.4 µL of buffer added to blank wells instead. Then, 0.6 µL of compound at different concentrations was added; DMSO was used instead for blank and control wells. The plate was mixed using a plate shaker and incubated at 37 °C for 30 minutes.
Finally, 30 µL of substrate at a concentration of 40 µM was added to each well, and the absorbance was measured at 405 nm.
Table 5. Inhibitory Effect of Compounds on Trypsin

Human FIIa = target: T3, Human FIIa (Homo sapiens, UniProt P00734); test: Inhibition of coagulation factor FIIa by absorbance method (S-2366 substrate, 405 nm); format: biochemical; settings: Inhibitory Effect of Compounds on Coagulation Factor FIIa; 37 °C for 30 minutes
T3 construct: Human FIIa (Enzyme Research Laboratories, Cat. No. HT 1002a); purchased Enzyme Research Laboratories HT 1002a
Protocol: Then 29.4 μL of FIIa enzyme solution (4 nM) was added to each well of a 384-well plate, with 29.4 μL of buffer added to blank wells instead. Then, 0.6 μL of compound at different concentrations was added; DMSO was used instead for blank and control wells. The plate was mixed using a plate shaker and incubated at 37 °C for 30 minutes. […] Table 6. Inhibitory Effect of Compounds on Coagulation Factor FIIa

Human Factor XIa = Human Factor XIa (Homo sapiens, UniProt P03951); test: Inhibition of human coagulation Factor XIa by absorbance method (S-2366 substrate, 405 nm); format: biochemical; settings: incubated at 37 °C for 20 minutes; substrate 800 µM; read-out: Recombinant Enzyme FXIa IC50
Protocol: • Enzyme: Human Factor XIa (ENZYME […], Cat. No. HFXIa 1111a) • Substrate: S-2366™ (CHROMOGENIX, Cat. No. 82109039) • Buffer: 145 mM NaCl, 5 mM KCl, 1 mg/mL PEG 8000, 30 mM HEPES, pH 7.4.
Test compounds dissolved in 100% DMSO at 10 mM were diluted with 100% DMSO to concentrations of 1000 µM, 200 µM, 40 µM, 8 µM, 1.6 µM, 0.32 µM, 0.064 µM, 0.0128 µM, 0.00256 µM, and […]. Then 98 µL of FXIa enzyme solution (77.7 ng/mL) was added to each well of a 96-well plate, with 98 µL of buffer added to blank wells instead. Then, 2 µL of compound at different concentrations was added; DMSO was used instead for blank and control wells. The plate was mixed using a plate shaker and incubated at 37 °C for 20 minutes.
Finally, 100 µL of substrate (800 µM) was added to each well, and the absorbance was measured at 405 nm.
Curve fitting was performed using GraphPad Prism software to calculate the IC50 values.

[1] = Pharmacokinetic experiment in rats (iv and PO); settings: male, Sprague-Dawley (SD), rat, plasma, 5 mg/kg
Description: (§1) Polyethylene glycol 400 (PEG-400, Lot GORKREUT, Shaen Chemical Technology (Shanghai) Co., Ltd.), DMSO (Lot 20200319, Guangdong Guanghua Sci-Tech Co., Ltd.), normal saline (Lot C20052604, Jiangxi Kelun Pharmaceutical Co., Ltd.). LC-MS instrument (Thermo Fisher Ultimate 3000 UPLC, TSQ QUANTUM ULTRA triple quadrupole mass spectrometer, AB SCIEX 5500 QTARP).
(§2) SD rats: Male, 180-250 g, purchased from Guangdong Vital River Laboratory Animal Technology Co., Ltd.
(§3) The test compound powder was accurately weighed, completely dissolved in DMSO, then PEG-400 was added. The mixture was vortexed and sonicated to mix, followed by the addition of normal saline. The mixture was vortexed and sonicated again to achieve a final concentration of 0.5 mg/mL (DMSO:PEG-400:NS = 5:60:35, V/V/V). The dosing volume was 10 mL/kg for oral gavage and 0.5 mL/kg for intravenous administration.
(§4) After intravenous or oral administration to rats, 200 µL of venous blood was collected at 5 min (not collected for oral group), 15 min, 30 min, 1 h, 2 h, 5 h, 7 h, and 24 h into heparinized EP tubes. The blood was centrifuged at 12,000 rpm for 2 minutes, and the plasma was collected and stored at -80 °C until analysis.
(§5) A precise amount of the test compound was weighed and dissolved in DMSO to 1 mg/mL as a stock solution. An appropriate volume of the compound stock solution was accurately pipetted and diluted with acetonitrile to prepare standard series solutions. 20 µL of each standard series solution was accurately pipetted and added to 180 µL of blank plasma, vortexed to mix, to prepare plasma samples equivalent to plasma concentrations of 1 ng/mL, 3 ng/mL, 10 ng/mL, 30 ng/mL, 100 ng/mL, 300 ng/mL, 1000 ng/mL, 3000 ng/mL, and 5000 ng/mL. Each concentration was analyzed in duplicate to establish the standard curve. 20 µL of plasma sample was taken, and 200 µL of an internal standard (propranolol, 5 ng/mL) in acetonitrile solution was added. The mixture was vortexed and centrifuged at 4000 rpm for 5 minutes. The supernatant was taken for LC-MS analysis. The LC-MS detection conditions were as follows: Chromatographic Column: Waters ACQUITY™ PREMIER HSS T3, 50*2.1 mm, 1.8 µm.
(§6) Mobile phase A: water (0.1% formic acid), mobile phase B: acetonitrile, flow rate: 0.5 mL/min, gradient elution: see Table 2 below.
(§7) After determining the plasma drug concentration by LC-MS, the pharmacokinetic parameters following administration to rats were calculated using the non-compartmental model in WinNonlin 6.1 software.

Pooled human plasma = test: In vitro anticoagulant effect in human plasma (aPTT, EC1.5x); format: biochemical; settings: 37 °C for 10 minutes
Protocol: aPTT (Lot 220106600), Calcium Chloride (Lot 210305600), Needle Rinse Solution (Lot 211101300): produced by Shenzhen Mindray Bio-Medical Electronics Co., Ltd. Pooled human plasma: collected from healthy individuals using disposable venous blood collection tubes (Liuyang Sanli Medical Technology Development Co., Ltd., Lot 211108, sodium citrate 9:1). Blood was collected, centrifuged at room temperature at 3000 rpm for 10 minutes, and the supernatant was collected and stored for use (Lot 20220606).
Test compounds dissolved in 100% DMSO at 10 mM were diluted with 100% DMSO to concentrations of 0.29 µM, 0.59 µM, 1.17 µM, 2.34 µM, 4.69 µM, 9.38 µM, 18.75 µM, and 37.50 µM. Then 99 µL of pooled human plasma was added to each 1.5 mL centrifuge tube, followed by the addition of 1 µL of compound at different concentrations; 1 µL of DMSO was added to the blank control. The tubes were mixed by repeated manual inversion, centrifuged briefly using a mini centrifuge to collect the samples, and then incubated in a thermostatic water bath at 37 °C for 10 minutes with mixing. The aPTT was measured using a fully automated coagulation analyzer according to the preset program.
Curve fitting was performed using GraphPad Prism software to calculate EC1.5x.

in vivo = settings: male, Sprague-Dawley (SD), rat
Description: as §1, §2, §3, §4, §5, §6, §7

Human Factor XIa, sequence (P03951 388-625 limits assumed): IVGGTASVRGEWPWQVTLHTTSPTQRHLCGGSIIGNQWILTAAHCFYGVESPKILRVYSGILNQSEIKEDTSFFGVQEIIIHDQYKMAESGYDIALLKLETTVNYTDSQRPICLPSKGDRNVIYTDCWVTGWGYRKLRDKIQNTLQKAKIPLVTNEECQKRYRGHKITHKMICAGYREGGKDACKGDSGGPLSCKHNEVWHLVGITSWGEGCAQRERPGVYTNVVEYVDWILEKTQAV
Human Factor XIa, sequence (P03951 19-387 partner limits assumed): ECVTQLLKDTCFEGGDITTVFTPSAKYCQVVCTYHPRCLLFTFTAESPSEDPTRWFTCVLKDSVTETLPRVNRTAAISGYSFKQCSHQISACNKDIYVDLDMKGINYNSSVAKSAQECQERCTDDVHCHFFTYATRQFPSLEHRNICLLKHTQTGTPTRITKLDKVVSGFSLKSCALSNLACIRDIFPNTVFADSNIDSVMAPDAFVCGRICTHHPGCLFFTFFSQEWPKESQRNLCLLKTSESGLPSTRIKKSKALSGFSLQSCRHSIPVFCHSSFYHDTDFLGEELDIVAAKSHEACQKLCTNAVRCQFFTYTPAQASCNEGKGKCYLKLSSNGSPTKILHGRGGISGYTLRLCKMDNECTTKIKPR
T1 sequence (P17538 34-164 limits assumed, other chains not shown): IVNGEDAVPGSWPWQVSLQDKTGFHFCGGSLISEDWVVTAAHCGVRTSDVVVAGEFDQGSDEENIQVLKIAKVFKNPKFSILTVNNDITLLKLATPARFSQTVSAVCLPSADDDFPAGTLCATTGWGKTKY
T1 sequence (P17538 167-263 limits assumed, other chains not shown): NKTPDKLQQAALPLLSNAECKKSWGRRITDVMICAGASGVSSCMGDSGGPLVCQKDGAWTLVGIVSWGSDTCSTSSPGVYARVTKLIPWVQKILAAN

Compound `[2H]C([2H])([2H])n1ncc2c1-c1cccc(c1)[C@@H](n1cnc(-c3cc(Cl)ccc3-n3cc(Cl)nn3)cc1=O)CCC[C@@H](C)C(=O)N2` [Comparative compound 2, reference compound] has an IC50 (α-Chymotrypsin) of 0.0792 µM, an IC50 (Human Trypsin) of 0.0831 µM and an IC50 (Human FIIa) of 3.14 µM.

`[2H]C([2H])([2H])n1ncc2c1-c1cc(F)cc(c1)[C@@H](n1cnc(-c3cc(Cl)ccc3-n3cc(Cl)nn3)cc1=O)CCC[C@@H](C)C(=O)N2` [Comparative compound 3, reference compound] gave an IC50 (α-Chymotrypsin) of 0.103 µM, an IC50 (Human Trypsin) of 0.11 µM and an IC50 (Human FIIa) of 2.15 µM.

`[2H]C([2H])([2H])n1ncc2c1-c1cc(F)c(F)c(c1)[C@@H](n1cnc(-c3cc(Cl)ccc3-n3cc(Cl)nn3)cc1=O)CCC[C@@H](C)C(=O)N2` [Compound 1, (3S,7R)-3-(4-(5-chloro-2-(4-chloro-1H-1,2,3-triazol-1-yl)phenyl)-6-oxopyrimidin-1(6H)-yl)-2^4,2^5-difluoro-7-methyl-1^1-(methyl-d3)-1^1H-9-aza-1(5,4)-pyrazola-2(1,3)-benzenacyclononaphan-8-one] showed an IC50 (α-Chymotrypsin) of 0.411 µM, an IC50 (Human Trypsin) of 0.225 µM and an IC50 (Human Factor XIa) of 0.00024 µM. For the same compound, the IC50 (Human FIIa) was 5.63 µM.

`[2H]C([2H])([2H])n1ncc2c1-c1cc(F)c(F)c(c1)[C@@H](n1cnc(-c3c(-n4cc(C(F)(F)F)nn4)ccc(Cl)c3F)cc1=O)CCC[C@@H](C)C(=O)N2` [Compound 4, (3S,7R)-3-(4-(3-chloro-2-fluoro-6-(4-(trifluoromethyl)-1H-1,2,3-triazol-1-yl)phenyl)-6-oxopyrimidin-1(6H)-yl)-2^4,2^5-difluoro-7-methyl-1^1-(methyl-d3)-1^1H-9-aza-1(5 ,4)-pyrazola-2(1,3)-benzenacyclononaphan-8-one] showed an IC50 (α-Chymotrypsin) of 0.173 µM, a bioavailability [1] of 19% and an IC50 (Human Trypsin) of 0.355 µM. The “Human Plasma APTT 1.5x” value (Pooled human plasma) was 0.20 µM and the IC50 (Human Factor XIa) was 0.00062 µM.

In the case of `C[C@@H]1CCC[C@H](n2cnc(-c3cc(Cl)ccc3-n3cc(C(F)(F)F)nn3)cc2=O)c2cc(cc(F)c2F)-c2c(cnn2C(F)F)NC1=O` [Compound 12, (3R,7R)-3-(4-(5-chloro-2-(4-(trifluoromethyl)-1H-1,2,3-triazol-1-yl)phenyl) -6-oxopyrimidin-1(6H)-yl)-24,2^5-difluoro-7-methyl-1^1-difluoromethyl-1^1H-9-aza-1(5,4)-pyr azola-2(1,3)-benzenacyclononaphan-8-one], the bioavailability (in vivo) is reported as 29.4%, the “Human Plasma APTT 1.5x” value (Pooled human plasma) is reported as 0.28 µM and the IC50 (Human Factor XIa) is reported as 0.00031 µM.

`[2H]C([2H])([2H])n1ncc2c1-c1cc(cc(F)c1F)[C@@H](n1cnc(-c3c(-n4cc(C(F)(F)F)nn4)ccc(Cl)c3F)cc1=O)CCC[C@@H](C)C(=O)N2` [Compound 16, (3S,7R)-3-(4-(3-chloro-2-fluoro-6-(4-(trifluoromethyl)-1H-1,2,3-triazol-1-yl)phenyl)-6-oxopyrimidin-1(6H)-yl)-2^52^6-difluoro-7-methyl-1^1-(methyl-d3)-1^1H-9-aza-1(5,4)-pyrazola-2(1,3)-benzenacyclononaphan-8-one] showed an IC50 (α-Chymotrypsin) of 0.164 µM, a bioavailability [1] of 44.5% and an IC50 (Human Trypsin) of 0.219 µM. For the same compound, the “Human Plasma APTT 1.5x” value (Pooled human plasma) was 0.31 µM, the IC50 (Human Factor XIa) was 0.0004 µM and the IC50 (Human FIIa) was 9.21 µM.

For `[2H]C([2H])([2H])n1ncc2c1-c1cc(cc(F)c1F)[C@@H](n1cnc(-c3cc(Cl)ccc3-n3cc(Cl)nn3)cc1=O)CCC[C@@H](C)C(=O)N2` [Compound 17, (3S,7R)-3-(4-(5-chloro-2-(4-chloro-1H-1,2,3-triazol-1-yl)phenyl)-6-oxopyrimidin-1(6H)-yl)-2^5,2^6-difluoro-7-methyl-1^1-(methyl-d3)-1^1H-9-aza-1(5,4)-pyrazola-2(1,3)-benzenacyclononaphan-8-one], the IC50 (α-Chymotrypsin) was 0.391 µM, the bioavailability [1] was 59.6% and the IC50 (Human Trypsin) was 0.322 µM. For the same compound, the “Human Plasma APTT 1.5x” value (Pooled human plasma) was 0.04 µM, the IC50 (Human Factor XIa) was 0.00036 µM and the IC50 (Human FIIa) was 6.92 µM.

In the case of `[2H]C([2H])([2H])n1ncc2c1-c1cc(cc(F)c1F)[C@@H](n1cnc(-c3cc(Cl)ccc3-n3cc(C(F)(F)F)nn3)cc1=O)CCC[C@@H](C)C(=O)N2` [Compound 18, (3S,7R)-3-(4-(5-chloro-2-(4-(trifluoromethyl)-1H-1,2,3-triazol-1-yl)phenyl) -6-oxopyrimidin-1(6H)-yl)-2^5,2^6-difluoro-7-methyl-1^1-(methyl-d3)-1^1H-9-aza-1(5,4)-pyrazola-2(1,3)-benzenacyclononaphan-8-one], the IC50 (α-Chymotrypsin) is reported as 0.223 µM, the bioavailability [1] is reported as 21.9% and the IC50 (Human Trypsin) is reported as 0.627 µM. For the same compound, the IC50 (Human FIIa) was 11.1 µM.

From patent EP4737457A1, “POLYSUBSTITUTED MACROCYCLIC COMPOUND, AND PREPARATION METHOD THEREFOR AND USE THEREOF” (Shenzhen Salubris Pharmaceuticals Co., Ltd., priority 2023, dated 2025)
